Measured values: US20260115202A1, “TOPICAL COMPOSITIONS COMPRISING AN ESTETROL COMPONENT AND USE OF SAID COMPOSITIONS FOR WOUND HEALING” (NEURALIS SA, priority 2022, published 2026)
“Also recorded” adds a separate entry of the source.

Experiments:
Type in all cases: cell-based
[1] = tested on: human dermal fibroblasts (HDF); assay: Scratch wound assay, human dermal fibroblasts; conditions: for concentration of optimal stimulation of fibroblast scratch wound closure / scratch closure compared to vehicle control: HDF; for scratch closure: HDF fifth donor, 24 hours, DMEM with 2% CS-FBS, 0% FBS or 2% FBS; for scratch closure compared to vehicle control: 36 hours
Excerpt: Primary human dermal fibroblasts (HDF) were isolated from abdominal skin or leg skin. Primary neonatal normal human epidermal keratinocytes (NHEK) were purchased (Lonza). Murine dermal fibroblasts (MDF), murine epidermal keratinocytes (MEK), murine peritoneal macrophages and murine bone marrow were isolated from C57/B16 (wt). NDb (Lepr+/-) or Db (Lepr-/-) mice. Fibroblasts were isolated and cultured in DMEM supplemented with 10% heat inactivated FBS. 1% penicillin/streptomycin and 1% amphotericin B. At least 4 days prior to performing assays cells were switched to DMEM supplemented with 5% charcoal-stripped FBS. Cells were seeded into 24 well plates and cultured to form a confluent monolayer, and then scratched with a 1 ml pipette tip. Wells were treated with E2, E4 and/or various estrogen receptor agonists and antagonists. […] A vehicle control containing the equivalent concentration of EtOH and/or DMSO was included, in addition to an untreated negative control. All treatments were diluted to working concentrations in media supplemented with 2% charcoal-stripped FBS. To visualise scratches at the defined endpoint, cells were stained with crystal violet and imaged on a Nikon E400 brightfield microscope. Scratch closure was determined from multiple independent measurements per well. Scratch assays were performed to quantify the effect of E2 and E4 at varying concentrations on HDF migration (FIG. 14). […] 10^-7M and 10^-6M (152%. 147% and 142% respectively). Thus, both E2 and E4 optimally stimulated fibroblast scratch wound closure at 10^-8M, with the higher magnitude of stimulation observed following E2 treatment. Next, an additional experiment was performed using HDF to a) further confirm the effects of E2 and E4 in fibroblasts from a fifth donor and b) explore the relative effect of including CS-FBS in the cell culture media. Three identical sets of scratch assays were performed (comparing vehicle to E2 or E4 treatment at 10^-7M) in DMEM containing either 2% CS-FBS. 0% FBS or 2% FBS (not CS).

[2] = tested on: normal human epidermal keratinocytes (NHEKs); assay: Scratch wound assay, normal human epidermal keratinocytes; conditions: NHEK, 10^−7/10^−8 M range, 15% and 30% HKGS, 24 hours
Method: Primary human dermal fibroblasts (HDF) were isolated from abdominal skin or leg skin. Primary neonatal normal human epidermal keratinocytes (NHEK) were purchased (Lonza). Murine dermal fibroblasts (MDF), murine epidermal keratinocytes (MEK), murine peritoneal macrophages and murine bone marrow were isolated from C57/B16 (wt). NDb (Lepr+/−) or Db (Lepr−/−) mice.
Neonatal HEK were cultured in EpiLife supplemented with […] human keratinocyte growth supplements (HKGS) and 1% penicillin/streptomycin. MEK were cultured in CnT basal medium supplemented with 1% penicillin/streptomycin and 1% amphotericin B.
Cells were seeded into 24 well plates and cultured to form a confluent monolayer, and then scratched with a 1 ml pipette tip. Wells were treated with E2, E4 and/or various estrogen receptor agonists and antagonists. […] A vehicle control containing the equivalent concentration of EtOH and/or DMSO was included, in addition to an untreated negative control. All treatments were diluted to working concentrations in media supplemented with 2% charcoal-stripped FBS. […] Scratch closure was determined from multiple independent measurements per well.
The effects of E2 and E4 on keratinocyte migration where evaluated using primary normal human epidermal keratinocytes (NHEKs).

[3] = tested on: mouse bone marrow derived macrophages (BMDM); assay: M1-polarised murine bone marrow derived macrophages, qPCR of M1 markers; conditions: for relative iNOS expression (M1 cell phenotype): formulations and E2/E4
Method: Bones were flushed with DMEM supplemented with 1% penicillin/streptomycin and 1% amphotericin B. Bone marrow cells were seeded into 12- or 6-well plates at 1×10^6 cells/ml in DMEM supplemented with 10% FBS and 10% L929-conditioned medium to induce differentiation. After 7-10 days, differentiated macrophages were treated with 10^−7M E2 or E4 in serum free growth medium for 16 hours and polarised to M1-type cells using 100 ng/ml IFN-γ and 1 μg/ml LPS. Following 6- or 24-hours polarisation cells were collected for RNA isolation or flow cytometry.
Following treatments, human and murine macrophages were collected in Trizol and RNA isolated using the Trizol plus RNA isolation kit (Invitrogen. Thermo Fisher) according to the manufacturer's instructions. RNA was reverse transcribed to cDNA using GoScript reverse transcriptase (Promega). Quantitative real-time PCR was carried out using 2×Takyon SYBR Green mastermix and a CFX Connect thermocycler. Primers for ERα and ERβ were used to explore changes in ER expression after treatment of MEK and MDF with E2 and E4. To investigate the effect of E2 and E4 on MEK differentiation and the expression of ECM proteins by MDF, primers for. Snail, keratin-1 and fibronectin, collagen I. MMP-2 and MMP-9 were used. Primers for INOS. IL-1B and Tnf-α or Ccl17 were used to assess M1/M2 polarisation status. Primers for GAPDH were used to normalise data. Relative gene expression was set to vehicle controls or M0 expression unless otherwise stated.
For follow up experiments murine bone marrow derived monocytes were isolated, differentiated (L929 media) and polarised to a pro-inflammatory M1 phenotype (IFN-γ and LPS: for 6 or 24 hours), and co-treated with either E2 or E4 at the optimal concentration identified in THP1 cells (10^−7: FIG. 24). […] Experiments were then undertaken with murine bone marrow derived monocytes differentiated to macrophages with 30 ng/ml MCSF, as opposed to L929 conditioned media.

[4] = L929 differentiated BMDM, M1 polarised 6 or 24 hours, 10^−7, versus vehicle
[5] = L929 differentiated BMDM, M1 polarised
[6] = MCSF differentiated BMDM, M1 polarised
[7] = MCSF differentiated BMDM, M1 polarised, 10^−7M, versus vehicle

SMILES	concentration of optimal stimulation of fibroblast scratch wound closure [1]	scratch closure ([1]; 10^−7M)	scratch closure compared to vehicle control ([1]; 10^−6M)	scratch closure compared to vehicle control ([1]; 10^−7M) [%]	scratch closure compared to vehicle control ([1]; 10^−8M) [%]	scratch wound closure [2]	expression of M1 markers (iNOS, IL1-β, Tnf-α) [3, 4]	relative iNOS expression (M1 cell phenotype) [3, 5]	expression of M1 marker iNOS [3, 6]	expression of M1 markers (iNOS, IL1-β, Tnf-α) [3, 7]	scratch closure compared to vehicle control ([1]; 10^−9M)
C[C@]12CC[C@@H]3c4ccc(O)cc4CC[C@H]3[C@@H]1[C@@H](O)[C@@H](O)[C@@H]2O [Formulation E4, 1,3,5 (10)-estratrien-3,15alpha, 16alpha, 17beta-tetrol]	10^−8 M	promoted scratch closure; also recorded: greatest promotion	142%	147	152	strong trend to faster wound closure	trend toward decreased expression of a range of M1 markers	significantly dampened the M1 cell phenotype	statistically significant reduction in the M1 marker INOS	strong trend towards reduced expression	
C[C@]12CC[C@@H]3c4ccc(O)cc4CC[C@H]3[C@@H]1CC[C@@H]2O [Formulation E2, 17β-estradiol, reference compound]	10^−8 M	promoted scratch closure	no difference in closure was observed	141		strong trend to faster wound closure	trend toward decreased expression of a range of M1 markers	significantly dampened the M1 cell phenotype	statistically significant reduction in the M1 marker INOS	strong trend towards reduced expression	no difference in closure was observed
